Consider four molecules from paper PMC3951875 (Bioorganic & medicinal chemistry letters, 2014).

A value given as a limit tells only on which side of the number the result lay.

Series [1] can be described thus: Microsomal stability, rat. The series is classed as in vitro ADME. Particulars: rat microsomes.
For another series, the target named is hERG channel (Homo sapiens, UniProt Q12809). Briefly: hERG channel inhibition. The format is biochemical. Particulars: @ 25 μM; < 5% at all tested concentrations (0.008-25.0 μM). (hERG is a cardiac potassium channel; its block is linked to QT prolongation.)
The next series is described as follows: Exposure. The note with it: for CO: IV, dose 0.03 mg, av. weight 27 g; for AUC / Cmax / Tmax / half-life: in vivo, 0.03 mg. The series is classed as in vivo.
Series [2] is described as follows: Microsomal stability, mouse. The note with it: mouse microsomes. The format is in vitro ADME.
In a further series the test system is Caco2. Briefly: PAMPA and Caco2 permeability analyses. The series is classed as in vitro ADME. Particulars: data not shown. (In PAMPA a lipid-coated filter parts donor from acceptor wells.)
A short description of series [3]: Biological stability in mouse plasma. The format is in vitro ADME.
Series [4] in a line: Microsomal stability, human. The format is in vitro ADME. Particulars: human microsomes.
The target in series [5] is T1, αIIbβ3 receptor (Homo sapiens, UniProt P05106+P08514). Briefly: Platelet aggregation. The series is classed as cell-based.
A further series relates to phospholipidosis. Briefly: Drug-induced phospholipidosis. The series is classed as cell-based. Particulars: data not shown.
A short description of the next series: Long-term solubilization. The series is classed as physicochemical.
The next series addresses αVβ3 receptor (Homo sapiens, UniProt P05106+P06756). Briefly: Activity versus the αVβ3 receptor. The note with it: manuscript in preparation.
The target in series [6] is T1, αIIbβ3 receptor. Briefly: Priming of the receptor for fibrinogen binding. The note with it: manuscript in preparation.
Series [7] concerns the target T1, αIIbβ3 receptor. Briefly: β3 conformation by binding of a conformation-specific monoclonal antibody.
The nature of series [8]: Chemical stability as a solution. The format is physicochemical. The note with it: both DMSO-based and aqueous.

T1 sequence (P08514 32-887 limits assumed): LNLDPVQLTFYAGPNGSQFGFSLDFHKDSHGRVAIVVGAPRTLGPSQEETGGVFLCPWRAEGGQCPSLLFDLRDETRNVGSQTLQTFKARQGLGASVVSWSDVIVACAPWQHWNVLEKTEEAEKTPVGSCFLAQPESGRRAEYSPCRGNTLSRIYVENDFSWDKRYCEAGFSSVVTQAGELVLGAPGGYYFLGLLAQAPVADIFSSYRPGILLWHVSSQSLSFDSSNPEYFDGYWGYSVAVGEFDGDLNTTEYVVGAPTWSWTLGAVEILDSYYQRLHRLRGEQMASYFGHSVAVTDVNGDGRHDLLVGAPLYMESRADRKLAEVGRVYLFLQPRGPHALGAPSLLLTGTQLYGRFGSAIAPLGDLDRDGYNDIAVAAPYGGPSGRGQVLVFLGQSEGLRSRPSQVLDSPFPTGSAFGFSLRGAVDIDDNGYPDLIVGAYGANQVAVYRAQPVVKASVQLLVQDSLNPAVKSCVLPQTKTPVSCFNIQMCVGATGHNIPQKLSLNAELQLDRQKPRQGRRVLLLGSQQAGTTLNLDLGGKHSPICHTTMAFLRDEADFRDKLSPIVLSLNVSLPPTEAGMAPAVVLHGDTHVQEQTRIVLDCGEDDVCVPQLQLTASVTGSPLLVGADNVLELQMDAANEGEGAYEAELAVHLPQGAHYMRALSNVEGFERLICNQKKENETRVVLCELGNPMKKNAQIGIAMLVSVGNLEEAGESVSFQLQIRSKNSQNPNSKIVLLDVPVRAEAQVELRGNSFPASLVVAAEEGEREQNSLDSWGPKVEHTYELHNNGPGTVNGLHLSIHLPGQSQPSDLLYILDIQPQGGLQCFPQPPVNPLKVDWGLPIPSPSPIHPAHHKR
T1 sequence (P08514 891-1039 partner limits assumed): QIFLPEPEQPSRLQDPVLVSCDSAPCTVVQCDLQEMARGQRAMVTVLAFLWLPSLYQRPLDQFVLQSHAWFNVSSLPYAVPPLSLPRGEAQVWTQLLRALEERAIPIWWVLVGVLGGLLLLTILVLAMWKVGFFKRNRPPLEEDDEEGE
T1 sequence (P05106 27-788): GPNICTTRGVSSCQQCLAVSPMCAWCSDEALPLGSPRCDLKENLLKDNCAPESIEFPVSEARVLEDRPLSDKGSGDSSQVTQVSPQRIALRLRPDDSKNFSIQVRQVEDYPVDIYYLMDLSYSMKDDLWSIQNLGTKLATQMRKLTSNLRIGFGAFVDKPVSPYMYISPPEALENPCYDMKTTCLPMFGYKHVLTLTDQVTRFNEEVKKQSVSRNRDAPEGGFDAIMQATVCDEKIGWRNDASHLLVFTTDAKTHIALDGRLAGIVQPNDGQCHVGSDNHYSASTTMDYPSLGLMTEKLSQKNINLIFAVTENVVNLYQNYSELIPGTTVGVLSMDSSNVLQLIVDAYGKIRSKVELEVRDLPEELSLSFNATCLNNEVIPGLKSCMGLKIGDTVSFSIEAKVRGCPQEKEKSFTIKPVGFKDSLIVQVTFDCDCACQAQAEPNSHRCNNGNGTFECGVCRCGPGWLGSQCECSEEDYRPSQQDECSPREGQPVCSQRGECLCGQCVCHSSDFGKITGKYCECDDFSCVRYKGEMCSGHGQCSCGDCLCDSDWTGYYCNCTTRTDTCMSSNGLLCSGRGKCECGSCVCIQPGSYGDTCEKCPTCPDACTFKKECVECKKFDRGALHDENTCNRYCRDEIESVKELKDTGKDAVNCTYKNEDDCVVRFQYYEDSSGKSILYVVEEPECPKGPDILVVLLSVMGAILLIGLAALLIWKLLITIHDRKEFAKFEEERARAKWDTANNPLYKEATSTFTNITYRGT
hERG channel, sequence (Q12809 whole entry): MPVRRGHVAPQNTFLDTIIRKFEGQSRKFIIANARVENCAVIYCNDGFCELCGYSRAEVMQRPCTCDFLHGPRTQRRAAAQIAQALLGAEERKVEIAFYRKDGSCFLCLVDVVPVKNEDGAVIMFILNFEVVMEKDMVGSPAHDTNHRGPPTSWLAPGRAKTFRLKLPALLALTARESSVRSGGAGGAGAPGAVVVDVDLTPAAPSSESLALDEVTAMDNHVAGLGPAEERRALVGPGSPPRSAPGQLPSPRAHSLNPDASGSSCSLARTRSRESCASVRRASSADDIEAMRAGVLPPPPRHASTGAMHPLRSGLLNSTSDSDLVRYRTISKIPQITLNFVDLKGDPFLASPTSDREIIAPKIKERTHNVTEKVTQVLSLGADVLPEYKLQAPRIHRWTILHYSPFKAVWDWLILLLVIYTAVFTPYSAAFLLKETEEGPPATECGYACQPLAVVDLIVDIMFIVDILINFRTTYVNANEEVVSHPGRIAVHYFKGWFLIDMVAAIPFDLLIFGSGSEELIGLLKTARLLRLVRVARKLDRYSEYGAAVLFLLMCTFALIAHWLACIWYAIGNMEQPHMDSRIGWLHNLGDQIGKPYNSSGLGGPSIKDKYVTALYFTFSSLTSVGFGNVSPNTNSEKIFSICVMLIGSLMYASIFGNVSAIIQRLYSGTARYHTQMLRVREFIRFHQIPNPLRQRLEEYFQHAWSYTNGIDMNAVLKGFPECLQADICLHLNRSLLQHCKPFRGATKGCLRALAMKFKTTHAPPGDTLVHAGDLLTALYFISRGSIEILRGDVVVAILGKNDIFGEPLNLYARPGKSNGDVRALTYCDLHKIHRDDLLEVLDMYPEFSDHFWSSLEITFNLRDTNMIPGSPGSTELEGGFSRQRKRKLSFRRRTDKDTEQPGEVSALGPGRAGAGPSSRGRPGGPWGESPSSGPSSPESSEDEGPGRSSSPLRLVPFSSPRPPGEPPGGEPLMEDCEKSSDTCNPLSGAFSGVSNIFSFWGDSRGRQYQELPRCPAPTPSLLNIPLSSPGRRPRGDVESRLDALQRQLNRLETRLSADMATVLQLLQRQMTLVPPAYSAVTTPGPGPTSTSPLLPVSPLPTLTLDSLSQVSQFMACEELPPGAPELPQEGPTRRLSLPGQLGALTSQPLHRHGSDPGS
αVβ3 receptor, sequence (P06756 31-889 limits assumed): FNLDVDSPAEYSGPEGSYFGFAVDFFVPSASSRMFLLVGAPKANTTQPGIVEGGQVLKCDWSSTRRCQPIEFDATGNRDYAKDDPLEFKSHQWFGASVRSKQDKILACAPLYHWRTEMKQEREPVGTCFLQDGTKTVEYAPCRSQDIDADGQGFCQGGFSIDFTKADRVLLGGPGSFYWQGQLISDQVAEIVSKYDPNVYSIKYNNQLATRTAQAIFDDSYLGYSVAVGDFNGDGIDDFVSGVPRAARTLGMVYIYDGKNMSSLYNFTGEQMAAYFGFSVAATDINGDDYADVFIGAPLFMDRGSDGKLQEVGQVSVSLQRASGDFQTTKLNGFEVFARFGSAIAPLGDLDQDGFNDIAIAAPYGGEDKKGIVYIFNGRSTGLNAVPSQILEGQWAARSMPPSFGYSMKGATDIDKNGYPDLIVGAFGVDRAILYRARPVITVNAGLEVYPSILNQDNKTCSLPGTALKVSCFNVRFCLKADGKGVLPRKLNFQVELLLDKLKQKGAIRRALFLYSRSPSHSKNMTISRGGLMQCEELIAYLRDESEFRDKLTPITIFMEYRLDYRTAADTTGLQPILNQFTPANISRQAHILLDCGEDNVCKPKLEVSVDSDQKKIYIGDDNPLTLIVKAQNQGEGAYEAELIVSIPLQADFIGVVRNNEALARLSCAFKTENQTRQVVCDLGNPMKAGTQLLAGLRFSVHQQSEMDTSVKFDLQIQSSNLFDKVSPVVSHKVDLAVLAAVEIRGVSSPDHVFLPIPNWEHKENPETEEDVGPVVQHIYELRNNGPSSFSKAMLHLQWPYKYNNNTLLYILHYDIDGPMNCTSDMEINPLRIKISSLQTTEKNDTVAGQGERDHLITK
αVβ3 receptor, sequence (P06756 891-1048 partner limits assumed): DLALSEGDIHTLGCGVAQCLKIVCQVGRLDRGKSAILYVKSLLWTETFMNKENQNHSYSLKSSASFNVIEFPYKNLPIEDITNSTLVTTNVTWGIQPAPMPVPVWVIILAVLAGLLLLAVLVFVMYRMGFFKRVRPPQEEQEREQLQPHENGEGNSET
αVβ3 receptor, sequence (P05106 27-788): as the sequence (P05106 27-788) above

Usually AUC stands for concentration integrated over time. High values mean high exposure, low ones low exposure. What is called Cmax is the maximum level reached in the sampled fluid or tissue. What is called Tmax is the time at which the peak concentration occurs. By half-life is commonly meant how long it takes for the measured level to halve. Low readings indicate fast loss, high ones slow loss. For the molecule `NCC(=O)Nc1cccc(-c2nn3c(=O)cc(N4CCNCC4)nc3s2)c1` [compound 2], the figures for the t1/2 result in series [1], in series [2] and in series [4] were “> det. limit (rat)”, “> det. limit (mouse)” and “> det. limit (human)”, respectively. The “hERG Inhibition” value at hERG channel is listed as under 5% @ 25 μM. The same molecule registered a CO in “Exposure” of 1.354 µg/mL. Besides, the AUC in the series “Exposure” (ip) was 45 ng·h/mL; in “Exposure” (iv), 123 ng·h/mL. This molecule also returned a Cmax in “Exposure” (ip) of 222 ng/mL. Also, in “Exposure” (ip), the Tmax stood at 4.8 min. For the same molecule, the half-life in “Exposure” (iv) is 4.2 min. Further, the “PAMPA and Caco2 permeability analyses” value in the series on Caco2 is on record as “unlikely that either agent possesses high oral bioavailability”. Also, the “Biological Stability” value is recorded as 97.5 (15 min.) in [3] (15 min.), 93.3 (60 min.) in [3] (60 min.) and 84.5 (120 min.) in series [3] (120 min.).

For orientation: IC50 means the concentration that inhibits the measured activity by half. A lower IC50 goes with higher potency. On αIIbβ3 receptor [5], `CCc1nn2c(=O)cc(N3CCNCC3)nc2s1` [compound 1] came in with an IC50 of 4 to 10 µM.

In general, solubility refers to the concentration that dissolves in the medium under given conditions. A lower solubility goes with a poorly soluble substance. Take `NCC(=O)Nc1cncc(-c2nn3c(=O)cc(N4CCNCC4)nc3s2)c1` [compound 13]: in the series on phospholipidosis, the induction of phospholipidosis result was “No appreciable induction of phospholipidosis”. The “hERG Inhibition” value on hERG channel is under 5% @ 25 μM. The solubility in the series “Long-term solubilization” is at least 60 mg/mL. Besides, at αVβ3 receptor, the “activity versus the αVβ3 receptor” value is on record as “does not possess any activity”. At αIIbβ3 receptor [6], the “priming of the receptor for fibrinogen binding” value is given as “neither primes the receptor for fibrinogen binding”. This molecule came in with a CO in “Exposure” of 1.145 µg/mL. In addition, in “Exposure” (ip), the AUC stood at 87 ng·h/mL, the Cmax is 405 ng/mL and the Tmax is 4.8 min. In the series “Exposure” (iv), this molecule had an AUC of 137 ng·h/mL and a half-life of 4.2 min. On αIIbβ3 receptor [7], the “change of β3 conformation” value is “nor changes the β3 conformation”. Besides, the “PAMPA and Caco2 permeability analyses” value with Caco2 is “unlikely that either agent possesses high oral bioavailability”. In series [3] (15 min.), the “Biological Stability” value is given as 100 (15 min.). In series [3] (60 min.), the “Biological Stability” value is listed as 99.5 (60 min.). For the same molecule, the “Biological Stability” value in [3] (120 min.) is recorded as 91.7 (120 min.).

Consider `NCC(=O)Nc1cc(-c2nn3c(=O)cc(N4CCNCC4)nc3s2)ccn1` [compound 14], for which, in series [8], the “chemical stability as a solution” value was “poor chemical stability”.
